Our source for the IC50 values is patent publication US7713969B2, “Compositions and methods for treatment of cancer” (ArQule, Inc., priority 2005, dated 2010).

Assay in all cases: Cell viability MTS assay
Common to all, as to type: cell-based, human
In general terms: Formazan colour is commonly taken as a measure of viable cells.

One assay concerns HCT-116. How it is done:
(§1) Cell viability was determined by measuring the activity of dehydrogenase enzymes in metabolically active cells using a tetrazolium compound, MTS. The assay was performed as described in Promega Technical Bulletin No. 169 (CellTiter 96 Aqueous Non-Radioactive Cell Proliferation Assay). Thirteen human cancer cell lines were assayed (see, e.g., Table 1). Cells were maintained at 37° C., 5% CO2. Adherent cells were maintained DMEM media (4.5 g/L glucose) supplemented with 15% heat-inactivated FBS, 10 mM L-glutamine, and 10 mM Hepes pH 7.5. Suspension cells were maintained in RPMI 1640 media, supplemented with 10% heat-inactivated FBS and 10 mM Hepes pH 7.5. Briefly, cells were seeded in 96-well plates as set forth in Table 1 and incubated for 16-24 hours. Candidate compounds were serially diluted in DMSO, further diluted in cell culture media, and then added to cells (final DMSO concentration of 0.33%). Cells were incubated in the presence of candidate compound for 72 hours. MTS stock solution (MTS 2 gm/L, PMS […] in PBS) was added to the cells (final concentration MTS […] and PMS 7.67 mg/L) and incubated for 4 hours. SDS was added to a final concentration of 1.4% and absorbance at 490 nm was measured within two hours using a platereader. The IC50 was defined as the concentration of compound that results in a 50% reduction in the number of viable cells as compwered to control wells treated with DMSO only (0.33%) and was calculated using non-linear regression analyswas. IC50 values were given in Table 2 for the compounds listed.

A further assay deals with DU-145. How it is done: as §1
The test system of the next assay is A549. How it is done: as §1
Another assay concerns HT29. How it is done: as §1
In a further assay the test system is K562. How it is done: as §1
Another assay deals with MCF7. As to conditions: Homo sapiens, MCF7, 72 hours with compound. How it is done:
as §1

The test system of another assay is SK-MEL-28. The conditions noted are these: Homo sapiens, SK-MEL-28, 72 hours with compound. How it is done: as §1
The next assay deals with PC-3. As to conditions: Homo sapiens, PC-3, 72 hours with compound. On the procedure:
as §1

The next assay relates to MDA-MB-231. On the procedure: as §1
The next assay deals with SKOV-3. As to conditions: Homo sapiens, SK-OV-3, 72 hours with compound. How it is done: as §1
Setting [1] is: Homo sapiens, HCT-116, 72 hours with compound.
Setting [2] is: Homo sapiens, DU-145, 72 hours with compound.
The mark [3] stands for this setting: Homo sapiens, A549, 72 hours with compound.
Setting [4] is: Homo sapiens, HT-29, 72 hours with compound.
Where [5] appears, read: Homo sapiens, MDA-MB-231, 72 hours with compound.
Where [6] appears, read: Homo sapiens, K562, 72 hours with compound.

A value given as a limit tells only on which side of the number the result lay.

Broadly, the IC50 is the concentration at which inhibition is half-maximal. Turning to “3-(5,6-Dihydro-4H-pyrrolo[3,2,1-ij]quinolin-1-yl)-4-(2,6-dichloro-phenyl)-pyrrole-2,5-dione [Example 20]”, the IC50 in the assay with HCT-116 (72 hours with compound) is 4.96 µM; with DU-145 (72 hours with compound) it was 31.1 µM; in the assay with A549 (72 hours with compound), 38.8 µM; in the assay on HT29 (72 hours with compound), > 100 µM; in the assay with K562 (72 hours with compound), 2.47 µM.
On to `COc1ccc(OC)c([C@H]2C(=O)NC(=O)[C@H]2c2cn3c4c(cccc24)CCC3)c1` (racemic) [Example 53, (±)-Cis-3-(5,6-dihydro-4H-pyrrolo[3,2,1-ij]quinolin-1yl)-4-(2,5-dimethoxyphenyl)-pyrrolidine-2,5-dione], for which the IC50 with MCF7, with HCT-116 (setting [1]), in the assay with SK-MEL-28, in the assay with PC-3, in the assay with DU-145 (setting [2]) and in the assay on A549 (setting [3]) was > 100 µM in each case. Also, the IC50 is > 100 µM in the assay with HT29 (setting [4]), > 100 µM in the assay on MDA-MB-231 (setting [5]), 36.3 µM in the assay on K562 (setting [6]) and 57.4 µM with SKOV-3.
On to `O=C1NC(=O)[C@@H](c2cn3c4c(cccc24)CCC3)[C@H]1c1ccc(F)cc1Cl` (racemic) [Example 54, (±)-Cis-3-(5,6-dihydro-4H-pyrrolo[3,2,1-ij]quinolin-1yl)-4-(2-chloro-4-fluoro-phenyl)-pyrrolidine-2,5-dione], for which the concentration for half-maximal inhibition (IC50) with MCF7 was > 100 µM; in the assay with HCT-116 (setting [1]) it was 7.63 µM; with SK-MEL-28, 25.2 µM; in the assay on PC-3 it was 11.5 µM; with DU-145 (setting [2]), 21.1 µM; in the assay on A549 (setting [3]), 22.1 µM. Further, the half-inhibitory concentration (IC50) in the assay with HT29 (setting [4]) worked out at 8.78 µM; in the assay on K562 (setting [6]), 3.37 µM; in the assay with SKOV-3 it was 6.88 µM.
Turning to `O=C1NC(=O)[C@@H](c2cn3c4c(cccc24)CCC3)[C@H]1c1cccc(Cl)c1` (racemic) [Example 55, (±)-Cis-3-(5,6-dihydro-4H-pyrrolo[3,2,1-ij]quinolin-1yl)-4-(3-chlorophenyl)-pyrrolidine-2,5-dione], the concentration for half-maximal inhibition (IC50) in the assay on MCF7 is > 100 µM; in the assay with HCT-116 (setting [1]), 12.1 µM; in the assay with SK-MEL-28, > 100 µM; with PC-3 it was 12.9 µM; with DU-145 (setting [2]) it was 35.7 µM; with A549 (setting [3]), 13.1 µM. In addition, the IC50 came to 13.1 µM with HT29 (setting [4]), 15.5 µM in the assay on MDA-MB-231 (setting [5]), 3.47 µM in the assay on K562 (setting [6]) and 11.6 µM with SKOV-3.
On to `O=C1[C@@H](c2c[nH]c3ccccc23)[C@H](c2cn3c4c(cccc24)CCC3)C(=O)N1COP(=O)(OCc1ccccc1)OCc1ccccc1` (relative stereo) [phosphoric acid dibenzyl ester trans-3-(5,6-dihydro-4H-pyrrolo[3,2,1-ij]quinolin-1-yl)-4-(1H-indol-3-yl)-2,5-dioxo-pyrrolidin-1-ylmethyl ester], for which the IC50 in the assay on HT29 (setting [4]) is 22.6 µM; with MDA-MB-231 (setting [5]), > 100 µM.
Regarding `O=C1NC(=O)C(c2cn3c4c(cccc24)CCC3)=C1c1ccccc1C(F)(F)F` [Example 6, 3-(5,6-dihydro-4H-pyrrolo[3,2,1-ij]quinolin-1-yl)-4(2-trifluoromethyl-phenyl)-pyrrole-2,5-dione], the IC50 in the assay with HT29 (setting [4]) was 62.7 µM; in the assay with MDA-MB-231 (setting [5]) it was 61.2 µM.
For `O=C1NC(=O)C(c2cn3c4c(cccc24)CCC3)=C1c1cccs1` [Example 7, 3-(5,6-Dihydro-4H-pyrrolo[3,2,1-ij]quinolin-1-yl)-4-thiophen-2-yl-pyrrole-2,5-dione] the same measures were > 100 µM and > 100 µM.
As for `O=C1NC(=O)C(c2cn3c4c(cccc24)CCC3)=C1c1ccccn1` [Example 9, 3-(5,6-Dihydro-4H-pyrrolo[3,2,1-ij]quinolin-1-yl)-4-pyridin-2-yl-pyrrole-2,5-dione], the IC50 with HT29 (setting [4]) and with MDA-MB-231 (setting [5]) was > 100 µM each time.
On to `COc1ccc(C2=C(c3cn4c5c(cccc35)CCC4)C(=O)NC2=O)cc1` [Example 10, 3-(5,6-Dihydro-4H-pyrrolo[3,2,1-ij]quinolin-1-yl)-4(4-methoxy-phenyl)-pyrrole-2,5-dione], for which the IC50 in the assay with HT29 (setting [4]) and in the assay with MDA-MB-231 (setting [5]) was > 100 µM each time.
As for `O=C1NC(=O)C(c2cn3c4c(cccc24)CCC3)=C1c1ccc2c(c1)OCO2` [Example 11, 3-Benzo[1,3]dioxol-5-yl-4-(5,6-dihydro-4H-pyrrolo[3,2,1-ij]quinolin-1-yl)-pyrrole-2,5-dione], the half-maximal inhibitory concentration (IC50) with HT29 (setting [4]) and in the assay with MDA-MB-231 (setting [5]) was > 100 µM throughout.
Consider `O=C1NC(=O)C(c2cn3c4c(cccc24)CCC3)=C1c1ccccc1` [Example 12, 3-(5,6-Dihydro-4H-pyrrolo[3,2,1-ij]quinolin-1-yl)-4-phenyl-pyrrole-2,5-dione], for which the half-maximal inhibitory concentration (IC50) stood at 66.5 µM in the assay with HT29 (setting [4]) and 81.6 µM in the assay on MDA-MB-231 (setting [5]).
Take `O=C1NC(=O)C(c2cn3c4c(cccc24)CCC3)=C1c1cc2ccccc2s1` [Example 13, 3-Benzo[b]thiophen-2-yl-4-(5,6-dihydro-4H-pyrrolo[3,2,1-ij]quinolin-1-yl)-pyrrole-2,5-dione]: the IC50 with HT29 (setting [4]) was > 100 µM; with MDA-MB-231 (setting [5]), 78.8 µM.
With `O=C1NC(=O)C(c2cn3c4c(cccc24)CCC3)=C1c1cccc(Oc2ccccc2)c1` [Example 14, 3-(5,6-Dihydro-4H-pyrrolo[3,2,1-ij]quinolin-1-yl)-4-(3-phenoxy-phenyl)-pyrrole-2,5-dione], the IC50 with HT29 (setting [4]) came out at 71.6 µM; in the assay on MDA-MB-231 (setting [5]), 98.2 µM.
The matching figures for `O=C1NC(=O)C(c2cn3c4c(cccc24)CCC3)=C1c1cccc(Cl)c1` [Example 15, 3-(5,6-Dihydro-4H-pyrrolo[3,2,1-ij]quinolin-1-yl)-4-(3-chloro-phenyl)-pyrrole-2,5-dione]: 75.8 µM and 43.6 µM.
For `O=C1NC(=O)C(c2cn3c4c(cccc24)CCC3)=C1c1ccccc1Cl` [Example 16, 3-(5,6-Dihydro-4H-pyrrolo[3,2,1-ij]quinolin-1-yl)-4-(2-chloro-phenyl)-pyrrole-2,5-dione] the same measures were 40.9 µM and 21.5 µM.
Regarding `COc1ccc(OC)c(C2=C(c3cn4c5c(cccc35)CCC4)C(=O)NC2=O)c1` [Example 17, 3-(5,6-Dihydro-4H-pyrrolo[3,2,1-ij]quinolin-1-yl)-4(2,5-dimethoxy-phenyl)-pyrrole-2,5-dione], the IC50 with HT29 (setting [4]) and with MDA-MB-231 (setting [5]) was > 100 µM in each case.
As to `O=C1NC(=O)C(c2cn3c4c(cccc24)CCC3)=C1c1ccc(F)cc1Cl` [Example 18, 3-(5,6-Dihydro-4H-pyrrolo[3,2,1-ij]quinolin-1-yl)-4-(2-chloro-4-fluoro-phenyl)-pyrrole-2,5-dione], the IC50 in the assay on HT29 (setting [4]) and with MDA-MB-231 (setting [5]) was > 100 µM each time.
Regarding `O=C1NC(=O)C(c2cn3c4c(cccc24)CCC3)=C1c1c(Cl)cccc1Cl` [Example 20, 3-(5,6-Dihydro-4H-pyrrolo[3,2,1-ij]quinolin-1-yl)-4-(2,6-dichloro-phenyl)-pyrrole-2,5-dione], the IC50 is > 100 µM in the assay on MCF7; 74 µM in the assay with SK-MEL-28; 82.7 µM in the assay on PC-3; 50.3 µM in the assay with MDA-MB-231 (setting [5]); 23.8 µM with SKOV-3.
With `O=C1NC(=O)C(n2ccc3ccccc32)=C1c1cn2c3c(cccc13)CCC2` [Example 22, 3-(5,6-Dihydro-4H-pyrrolo[3,2,1-ij]quinolin-1-yl)-4-indol-1-yl-pyrrole-2,5-dione], the results for the IC50 in the assay on HT29 (setting [4]) and in the assay with MDA-MB-231 (setting [5]) were > 100 µM and 59.4 µM, respectively.
Take `O=C1NC(=O)C(c2cn3c4c(cccc24)CCC3)=C1c1cccnc1` [Example 23, 3-(5,6-Dihydro-4H-pyrrolo[3,2,1-ij]quinolin-1-yl)-4-pyridine-3-yl-pyrrole-2,5-dione]: the results for the IC50 with HT29 (setting [4]) and with MDA-MB-231 (setting [5]) were 76.8 µM and 28.7 µM, respectively.
As to `O=C1NC(=O)C(c2cn3c4c(cccc24)CN(C(=O)OCc2ccccc2)CC3)=C1c1c[nH]c2ccccc12` [Example 73, 7-[4-(1H-indol-3-yl)-2,5-dioxo-2,5-dihydro-1H-pyrrol-3-yl]-3,4-dihydro-1H-[1.4]diazepino[6,7,1-hi]indole-2-carboxylic acid benzyl ester], the concentration for half-maximal inhibition (IC50) in the assay with HT29 (72 hours with compound) and in the assay on MDA-MB-231 (72 hours with compound) was > 100 µM in each case.
